By EC50 is commonly meant the concentration giving half of the maximal effect.

Data set [1] has as its system primary keratinocytes stimulated by polyinosinic:polycytidylic acid. The data set is described as follows: Cellular activity broad panel: reduction of cytokine/chemokine levels in stimulated primary keratinocytes. The format is cell-based. The conditions noted are these: Homo sapiens, Keratinocyte. Here is the method:
• 1. Seed Primary Human Keratinocytes cells (PHK) at 9000 cells/well in a flat bottom 96 well plate. • 2. […] Cells are cultured for 24 hr prior to TLR ligand stimulation (polyinosinic:polycytidylic acid). • 4. Cells are treated with 20 μg/mL polyinosinic:polycytidylic acid for 48 hrs in 180 μL of media and treated for different compounds or controls. • 5. Supernatant is collected and Chemokine and Cytokines analysis is performed by Magpix-Luminex. Immunoassay Procedure Day 1 • 1. Add 200 μL of Assay Buffer per well. Shake 10 min, RT. Decant. • 2. Add 25 μL of Standard or Control to the appropriate wells. • 3. Add 25 μL of Assay Buffer to background and sample wells. • 4. Add 25 μL of cell media to background, standard and control wells. • 5. Add 25 μL neat samples to sample wells. • 6. Add 25 μL of Beads to each well. • 7. Incubate overnight (16-18 hr) at 4° C. Day 2 • 8. Remove well contents and wash 2× with 200 μL Wash buffer. • 9. Add 25 μL of Detection Antibodies per well. • 10. Incubate 1 hr at RT (20-25° C.). • 11. […] Incubate for 30 min at RT. • 13. Remove well contents and wash 2× with 200 μL Wash buffer. • 14. Add 150 μL of Wash Buffer per well. Resuspend the beads on a plate shaker for 5 min. • 15. Read on Luminex 100 μl (50 beads per bead set).

The target of a further data set is BRD3(1) (Homo sapiens (Human), UniProt Q15059). Put plainly: Bromodomain binding assay, BRD3(1). The conditions noted are these: single point, screened at 30 times Kd; lower numbers indicate stronger hits. Here is the method: (§1) T7 phage strains displaying bromodomains were grown in parallel in 24-well blocks in an E. coli host derived from the BL21 strain. E. coli were grown to log-phase and infected with T7 phage from a frozen stock (multiplicity of infection=0.4) and incubated with shaking at 32° C. until lysis (90-150 min). The lysates were centrifuged (5,000×g) and filtered (0.2 μm) to remove cell debris. Streptavidin-coated magnetic beads were treated with biotinylated small molecule or acetylated peptide ligands for 30 min at RT to generate affinity resins for bromodomain assays. The ligated beads were blocked with excess biotin and washed with blocking buffer (SeaBlock (Pierce), 1% BSA, 0.05% Tween 20, 1 mM DTT) to remove unbound ligand and to reduce non-specific phage binding. Binding reactions were assembled by combining bromodomains, ligated affinity beads, and test compounds in 1× binding buffer (16% SeaBlock, 0.32×PBS, 0.02% BSA, 0.04% Tween 20, 0.004% Sodium azide, 7.9 mM DTT). Test compounds were prepared as 1000× stocks in 100% DMSO and subsequently diluted 1:25 in MEG. The compounds were then diluted directly into the assays such that the final concentrations of DMSO and MEG were 0.1% and 2.4%, respectively. All reactions were performed in polypropylene 384-well plates in a final volume of 0.02 ml. The assay plates were incubated at RT with shaking for 1 hr and the affinity beads were washed with wash buffer (1×PBS, 0.05% Tween 20). The beads were then re-suspended in elution buffer (1×PBS, 0.05% Tween 20, 2 μM non-biotinylated affinity ligand) and incubated at RT with shaking for 30 min. The bromodomain concentration in the eluates was measured by quantitative polymerase chain reaction (qPCR).
(§2) An 11-point 3-fold serial dilution of each test compound was prepared in 100% DMSO at 1000× final test concentration. […] Most dissociation constants were determined using a compound top concentration=10,000 nM. If the initial dissociation constant determined was <0.169 nM (the lowest concentration tested), the measurement was repeated with a serial dilution starting at a lower top concentration. […]

A further data set concerns the target BRD3(2) (Homo sapiens (Human), UniProt Q15059). The data set is described as follows: Bromodomain binding assay, BRD3(2). The conditions noted are these: single point, screened at 30 times Kd; lower numbers indicate stronger hits. Here is the method:
as §1, §2

The test system of a further data set is human liver hepatocytes. Put plainly: Intrinsic clearance in human liver hepatocytes. The format is in vitro ADME. The conditions noted are these: human cryopreserved hepatocytes, 0.5 μM test compound. A digest of the protocol:
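Cryopreserved human hepatocytes in supplemented Williams Medium E were incubated at 37 °C, 5% CO2, with 0.5 μM compound at 0.25 million cells/mL final. Aliquots taken up to 120 min were quenched into acetonitrile and analysed by UPLC-MS/MS. Clearance came from an exponential decay fit of compound-to-internal-standard ratio over time.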

Setting [2] is: disease relevant markers, read-out: cellular EC50 values in stimulated human primary keratinocytes.
The mark [3] stands for this setting: poly I:C 20 μg/mL, 48 hrs, read-out: EC50 reduction of CCL2.
[4] abbreviates: poly I:C 20 μg/mL, 48 hrs, read-out: EC50 reduction of CCL20.
Setting [5] is: poly I:C 20 μg/mL, 48 hrs, read-out: EC50 reduction of CCL27.
[6] abbreviates: poly I:C 20 μg/mL, 48 hrs, read-out: EC50 reduction of CXCL9.
[7] abbreviates: poly I:C 20 μg/mL, 48 hrs, read-out: EC50 reduction of GM-CSF.
Where [8] appears, read: poly I:C 20 μg/mL, 48 hrs, read-out: EC50 reduction of IL-1a.
The mark [9] stands for this setting: poly I:C 20 μg/mL, 48 hrs, read-out: EC50 reduction of IL-6.
[10] abbreviates: poly I:C 20 μg/mL, 48 hrs, read-out: EC50 reduction of IL-8.
Setting [11] is: poly I:C 20 μg/mL, 48 hrs, read-out: EC50 reduction of TNF-a.
The mark [12] stands for this setting: poly I:C 20 μg/mL, 48 hrs, read-out: EC50 reduction of TSLP.

Like-named read-outs stand apart in the source and are kept apart here.

Sequence of BRD3(1) (Q15059 34-140): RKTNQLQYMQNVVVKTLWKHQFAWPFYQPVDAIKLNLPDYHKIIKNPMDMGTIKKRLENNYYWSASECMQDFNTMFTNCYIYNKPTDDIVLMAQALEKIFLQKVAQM
Sequence of BRD3(2) (Q15059 306-415): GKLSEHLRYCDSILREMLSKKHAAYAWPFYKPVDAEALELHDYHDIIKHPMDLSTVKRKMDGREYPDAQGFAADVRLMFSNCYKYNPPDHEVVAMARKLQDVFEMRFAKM

On to `Cn1cc(-c2cccc(O)c2Oc2ccccc2)c2cc[nH]c2c1=O` [Example 1, 4-(3-hydroxy-2-phenoxyphenyl)-6-methyl-1,6-dihydro-7H-pyrrolo[2,3-c]pyridin-7-one], for which the EC50 is below 100 nM in data set [1] (setting [2]); 10 to 100 nM in data set [1] (setting [3]); 10 to 100 nM in data set [1] (setting [4]); 10 to 100 nM in data set [1] (setting [5]); at most 10 nM in data set [1] (setting [6]); at most 10 nM in data set [1] (setting [7]). For the same compound, the EC50 in data set [1] (setting [8]) is at most 10 nM; in data set [1] (setting [9]), 10 to 100 nM; in data set [1] (setting [10]), at most 10 nM; in data set [1] (setting [11]), at most 10 nM; in data set [1] (setting [12]), 10 to 100 nM. Further, on BRD3(1), the “BRD3(1) % Ctrl” value turned out to be 0 % Ctrl. The “BRD3(2) % Ctrl” value at BRD3(2) stood at 0.05 % Ctrl. Also, the “Intrinsic clearance, % Liver Blood Flow” value in the data set with human liver hepatocytes worked out at 83 % Liver Blood Flow.

For the compound `Cn1cc(-c2c(O)cccc2Oc2ccccc2)c2cc[nH]c2c1=O` [Example 3, 4-(2-hydroxy-6-phenoxyphenyl)-6-methyl-1,6-dihydro-7H-pyrrolo[2,3-c]pyridin-7-one], the EC50 was below 100 nM in data set [1] (setting [2]); at most 10 nM in data set [1] (setting [3]); at most 10 nM in data set [1] (setting [4]); 10 to 100 nM in data set [1] (setting [5]); at most 10 nM in data set [1] (setting [6]); at most 10 nM in data set [1] (setting [7]). In addition, the EC50 in data set [1] (setting [8]) was at most 10 nM; in data set [1] (setting [9]) it was 10 to 100 nM; in data set [1] (setting [10]), at most 10 nM; in data set [1] (setting [11]), at most 10 nM; in data set [1] (setting [12]) it was at most 10 nM. Besides, in the data set with human liver hepatocytes, the “Intrinsic clearance, % Liver Blood Flow” value is reported as 86 % Liver Blood Flow.

The values are drawn from patent publication US12384777B2 (Tay Therapeutics Limited, priority 2019, dated 2025).
